Columns and labels:
Test in all cases: In vitro cytotoxicity, Development Therapeutics Program
Assay type in all cases: cell-based
[1] = tested on: UACC-62; conditions: UACC-62, melanoma; 1.0×10^−5 M
Excerpt: (§1) From the in vitro experiments of the Development Therapeutics Program of the Cancer Research Institute, the United States, it was known that the synthetic heterocyclic anthraquinone derivatives of the present invention have different inhibition levels to the different cancer cell lines under the concentration of 1.0×10^−5 M. Please refer to Table 2, which is the result of in vitro cytotoxicity of 2,7-disubstituted anthraquinone derivatives of the present invention.

[2] = tested on: NCl-H522; conditions: NCl-H522, non-small cell lung cancer; 1.0×10^−5 M
Excerpt: as §1

[3] = tested on: SW-620; conditions: SW-620, colon cancer; 1.0×10^−5 M
Excerpt: as §1

[4] = tested on: SN12C; conditions: renal cancer, 1.0×10^−5 M
Excerpt: as §1

[5] = tested on: SR; conditions: leukemia, 1.0×10^−5 M
Excerpt: as §1

[6] = tested on: SF-539; conditions: SF-539, CNS cancer; 1.0×10^−5 M
Excerpt: as §1

[7] = tested on: LOX IMVI; conditions: melanoma, 1.0×10^−5 M
Excerpt: as §1

[8] = tested on: HCC-2998; conditions: HCC-2998, colon cancer; 1.0×10^−5 M
Excerpt: as §1

[9] = tested on: MDA-MB-231/ATCC; conditions: breast cancer, 1.0×10^−5 M
Excerpt: as §1

[10] = tested on: A498; conditions: A498, renal cancer; 1.0×10^−5 M
Excerpt: as §1

[11] = tested on: SK-MEL-28; conditions: SK-MEL-28, melanoma; 1.0×10^−5 M
Excerpt: as §1

[12] = tested on: MOLT-4; conditions: MOLT-4, leukemia; 1.0×10^−5 M
Excerpt: as §1

[13] = tested on: CAK1-1; conditions: CAK1-1, renal cancer; 1.0×10^−5 M
Excerpt: as §1

[14] = tested on: EKVX; conditions: non-small cell lung cancer, 1.0×10^−5 M
Excerpt: as §1

[15] = tested on: PC-3; conditions: PC-3, prostate cancer; 1.0×10^−5 M
Excerpt: as §1

[16] = tested on: MALME-3M; conditions: melanoma, 1.0×10^−5 M
Excerpt: as §1

[17] = tested on: NCl-H460; conditions: NCl-H460, non-small cell lung cancer; 1.0×10^−5 M
Excerpt: as §1

[18] = tested on: SNB-19; conditions: SNB-19, CNS cancer; 1.0×10^−5 M
Excerpt: as §1

[19] = tested on: NCI-H23; conditions: NCI-H23, non-small cell lung cancer; 1.0×10^−5 M
Excerpt: as §1

[20] = tested on: OVCAR-5; conditions: OVCAR-5, ovarian cancer; 1.0×10^−5 M
Excerpt: as §1

[21] = tested on: HT29; conditions: HT29, colon cancer; 1.0×10^−5 M
Excerpt: as §1

[22] = tested on: HS 578T; conditions: breast cancer, 1.0×10^−5 M
Excerpt: as §1

[23] = tested on: SF-268; conditions: SF-268, CNS cancer; 1.0×10^−5 M
Excerpt: as §1

[24] = tested on: DU-145; conditions: DU-145, prostate cancer; 1.0×10^−5 M
Excerpt: as §1

[25] = tested on: SNB-75; conditions: SNB-75, CNS cancer; 1.0×10^−5 M
Excerpt: as §1

[26] = tested on: SK-MEL-2; conditions: SK-MEL-2, melanoma; 1.0×10^−5 M
Excerpt: as §1

[27] = tested on: HL-60(TB); conditions: leukemia, 1.0×10^−5 M
Excerpt: as §1

[28] = tested on: SF-295; conditions: SF-295, CNS cancer; 1.0×10^−5 M
Excerpt: as §1

[29] = tested on: HCT-15; conditions: HCT-15, colon cancer; 1.0×10^−5 M
Excerpt: as §1

[30] = tested on: BT-549; conditions: BT-549, breast cancer; 1.0×10^−5 M
Excerpt: as §1

[31] = tested on: HCT-116; conditions: HCT-116, colon cancer; 1.0×10^−5 M
Excerpt: as §1

[32] = tested on: OVCAR-4; conditions: OVCAR-4, ovarian cancer; 1.0×10^−5 M
Excerpt: as §1

[33] = tested on: MCF7; conditions: MCF7, breast cancer; 1.0×10^−5 M
Excerpt: as §1

[34] = tested on: KM12; conditions: KM12, colon cancer; 1.0×10^−5 M
Excerpt: as §1

[35] = tested on: CCRF-CEM; conditions: leukemia, 1.0×10^−5 M
Excerpt: as §1

[36] = tested on: SK-MEL-5; conditions: SK-MEL-5, melanoma; 1.0×10^−5 M
Excerpt: as §1

SMILES	Cellular growth rate (%) [1] [%]	Cellular growth rate (%) [2] [%]	Cellular growth rate (%) [3] [%]	Cellular growth rate (%) [4] [%]	Cellular growth rate (%) [5] [%]	Cellular growth rate (%) [6] [%]	Cellular growth rate (%) [7] [%]	Cellular growth rate (%) [8] [%]	Cellular growth rate (%) [9] [%]	Cellular growth rate (%) [10] [%]	Cellular growth rate (%) [11] [%]	Cellular growth rate (%) [12] [%]	Cellular growth rate (%) [13] [%]	Cellular growth rate (%) [14] [%]	Cellular growth rate (%) [15] [%]	Cellular growth rate (%) [16] [%]	Cellular growth rate (%) [17] [%]	Cellular growth rate (%) [18] [%]	Cellular growth rate (%) [19] [%]	Cellular growth rate (%) [20] [%]	other results
O=C(CCN1CCCC1)Nc1ccc2c(c1)C(=O)c1cc(NC(=O)CCN3CCCC3)ccc1C2=O [Compound 18, 2,7-Bis[3-(pyrrolidino)propionamido]anthraquinone]	42.72	29.16	20.01	6.68	19.75	33.75	30.74	19.99	30.47	−0.91	14.99	22.97	55.55	58.72	21.66	47.00	25.52	66.97	31.49	18.81	Cellular growth rate (%) [21]: 19.47%; Cellular growth rate (%) [22]: 5.26%; Cellular growth rate (%) [23]: 26.67%; Cellular growth rate (%) [24]: 29.53%; Cellular growth rate (%) [25]: 77.47%; Cellular growth rate (%) [26]: −45.21%; Cellular growth rate (%) [27]: 85.84%; Cellular growth rate (%) [28]: 48.62%; Cellular growth rate (%) [29]: 56.14%; Cellular growth rate (%) [30]: 76.91%; Cellular growth rate (%) [31]: 10.51%; Cellular growth rate (%) [32]: 49.82%; Cellular growth rate (%) [33]: 13.35%; Cellular growth rate (%) [34]: 32.55%; Cellular growth rate (%) [35]: 3.74%; Cellular growth rate (%) [36]: 56.94%
CC(=O)Nc1ccc2c(c1)C(=O)c1cc(NC(C)=O)ccc1C2=O [Compound 26, 2,7-Bis(acetamido)anthraquinone]	101.24	93.56	103.21	113.35	3.61	103.04	99.05	105.35	103.99	115.60	117.60	96.96	105.10	95.28	102.73	111.26	109.29	94.40	94.24	102.27	Cellular growth rate (%) [21]: 107.23%; Cellular growth rate (%) [22]: 133.05%; Cellular growth rate (%) [23]: 113.68%; Cellular growth rate (%) [24]: 116.79%; Cellular growth rate (%) [25]: 106.91%; Cellular growth rate (%) [26]: 30.15%; Cellular growth rate (%) [27]: 38.74%; Cellular growth rate (%) [28]: 103.25%; Cellular growth rate (%) [29]: 93.93%; Cellular growth rate (%) [30]: 93.29%; Cellular growth rate (%) [31]: 101.91%; Cellular growth rate (%) [32]: 103.60%; Cellular growth rate (%) [33]: 96.90%; Cellular growth rate (%) [34]: 105.94%; Cellular growth rate (%) [35]: 99.77%; Cellular growth rate (%) [36]: 108.87%
O=C1c2ccc(NC(=O)C3CC3)cc2C(=O)c2cc(NC(=O)C3CC3)ccc21 [Compound 32, 2,7-Bis(cyclopropanecarbonamido)anthraquinone]	81.00	89.41	104.75	82.93	1.69	93.24	90.27	132.37	97.05	92.35	108.51	94.29	88.43	94.31	106.89	91.76	89.03	98.79	95.85	112.01	Cellular growth rate (%) [21]: 106.26%; Cellular growth rate (%) [22]: 118.90%; Cellular growth rate (%) [23]: 95.09%; Cellular growth rate (%) [24]: 98.83%; Cellular growth rate (%) [25]: 89.23%; Cellular growth rate (%) [26]: 16.85%; Cellular growth rate (%) [27]: 62.45%; Cellular growth rate (%) [28]: 86.60%; Cellular growth rate (%) [29]: 86.35%; Cellular growth rate (%) [30]: 92.51%; Cellular growth rate (%) [31]: 87.14%; Cellular growth rate (%) [32]: 97.54%; Cellular growth rate (%) [33]: 77.38%; Cellular growth rate (%) [34]: 92.67%; Cellular growth rate (%) [35]: 90.67%; Cellular growth rate (%) [36]: 75.67%
CN(C)CC(=O)Nc1ccc2c(c1)C(=O)c1cc(NC(=O)CN(C)C)ccc1C2=O [Compound 8, 2,7-Bis[2-(dimethylamino)acetamido]anthraquinone]	22.31	61.82	23.36	27.99	−46.45	−3.72	−52.34	−73.97	4.49	−6.39	32.11	29.12	59.26	102.30	59.00	96.21	5.01	79.57	51.78	73.15	Cellular growth rate (%) [21]: 11.73%; Cellular growth rate (%) [22]: −6.11%; Cellular growth rate (%) [23]: 64.92%; Cellular growth rate (%) [24]: 78.68%; Cellular growth rate (%) [25]: 76.12%; Cellular growth rate (%) [26]: −30.35%; Cellular growth rate (%) [27]: −64.97%; Cellular growth rate (%) [28]: −83.51%; Cellular growth rate (%) [29]: 16.26%; Cellular growth rate (%) [30]: 85.36%; Cellular growth rate (%) [31]: 19.07%; Cellular growth rate (%) [32]: 45.70%; Cellular growth rate (%) [33]: 7.92%; Cellular growth rate (%) [34]: 66.95%; Cellular growth rate (%) [35]: −13.21%; Cellular growth rate (%) [36]: 82.59%
